For orientation: IC50 means the point on the concentration scale where inhibition reaches its midpoint. High values mean a need for much substance, low ones inhibition by little substance.

The structures appear in SMILES notation.

The target of experiment [1] is αvβ6 (Homo sapiens, UniProt P06756+P18564). In words: αv integrin binding assay, αVβ6-LAP-TGF β1 interaction (integrin coupled beads, flow cytometry). The conditions noted are these: ligand LAP-TGF β1 (LAP1) 10 nM; integrin 10 nM. Here is the method:
(§1) αVβ6/αVβ8—LAP-TGF β1 Binding Assay
(§2) Integrins αVβ6/αVβ8 coupled beads are treated with an αVβ6/αVβ8 ligand (e.g., LAP TGF-β1 (LAP1)), and the complex is incubated with a primary antibody (Ab), which can be labeled for detection (e.g., fluorescently labeled), and optionally with a secondary antibody, which can be labeled for detection (e.g., fluorescently labeled). Reaction between integrin coupled beads and the ligand was considered as the full reaction, and reaction without the ligand or a compound of the disclosure was considered as the blank reaction. The complex is analyzed, e.g., by either plate reader or Flow Cytometer, to determine modulation of binding between αVβ6/αVβ8 and the ligand (e.g., LAP-TGF Pβ1) by the compounds of the present application. […]
(§3) The integrin coupled Dyna beads were allowed to interact with respective ligands. The integrin-ligand complex was detected with either Primary/Secondary Antibody conjugated with Fluorescein Isothiocyanate (FITC). […] Fluorescence was measured by Flow Cytometry analysis.
(§4) αVβ6/αVβ8—LAP-TGF β1 interaction: αVβ6/αVβ8 coupled beads were treated with the ligand LAP TGF-β1 (LAP1) at room temperature for 3 hours. […] The complex was analyzed by either plate reader or Flow Cytometer. […]
(§5) Quantification: The samples were acquired using a BD FACSCalibur system and analyzed with BD Cell quest pro Version 6. […]

Experiment [2] concerns the target αvβ8 (Homo sapiens, UniProt P06756+P26012). In words: αv integrin binding assay, αVβ8-LAP-TGF β1 interaction (integrin coupled beads, flow cytometry). The method, then:
as §1, §2, §3, §4, §5
(In flow cytometry, cells or beads pass a laser one at a time.)

Sequence of αvβ8 (P06756 31-992 limits assumed): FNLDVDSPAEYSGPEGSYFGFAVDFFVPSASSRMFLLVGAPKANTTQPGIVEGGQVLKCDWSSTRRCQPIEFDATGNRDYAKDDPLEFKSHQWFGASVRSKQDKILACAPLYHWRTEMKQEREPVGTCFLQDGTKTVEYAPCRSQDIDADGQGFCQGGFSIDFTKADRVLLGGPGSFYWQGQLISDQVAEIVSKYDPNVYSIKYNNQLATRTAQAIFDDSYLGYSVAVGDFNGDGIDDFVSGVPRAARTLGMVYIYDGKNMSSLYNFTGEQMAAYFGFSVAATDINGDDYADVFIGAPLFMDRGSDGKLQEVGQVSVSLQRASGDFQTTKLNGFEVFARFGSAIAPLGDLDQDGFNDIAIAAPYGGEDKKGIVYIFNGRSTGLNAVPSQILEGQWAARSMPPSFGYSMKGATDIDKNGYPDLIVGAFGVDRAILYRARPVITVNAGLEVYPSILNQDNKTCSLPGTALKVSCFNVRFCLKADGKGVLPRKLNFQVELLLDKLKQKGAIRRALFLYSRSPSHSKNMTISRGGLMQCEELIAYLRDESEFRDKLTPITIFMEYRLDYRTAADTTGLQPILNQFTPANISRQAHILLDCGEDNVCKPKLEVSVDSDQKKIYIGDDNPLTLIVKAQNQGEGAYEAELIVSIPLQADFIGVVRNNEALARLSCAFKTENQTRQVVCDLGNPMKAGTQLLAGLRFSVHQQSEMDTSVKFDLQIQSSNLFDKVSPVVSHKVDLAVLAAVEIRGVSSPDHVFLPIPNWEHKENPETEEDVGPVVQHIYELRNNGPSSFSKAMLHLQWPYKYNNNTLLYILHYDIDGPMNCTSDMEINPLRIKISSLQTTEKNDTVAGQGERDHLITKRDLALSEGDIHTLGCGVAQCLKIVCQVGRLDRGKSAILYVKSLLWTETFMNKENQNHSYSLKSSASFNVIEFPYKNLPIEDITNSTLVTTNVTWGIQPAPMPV
Sequence of αvβ8 (P26012 43-684 limits assumed): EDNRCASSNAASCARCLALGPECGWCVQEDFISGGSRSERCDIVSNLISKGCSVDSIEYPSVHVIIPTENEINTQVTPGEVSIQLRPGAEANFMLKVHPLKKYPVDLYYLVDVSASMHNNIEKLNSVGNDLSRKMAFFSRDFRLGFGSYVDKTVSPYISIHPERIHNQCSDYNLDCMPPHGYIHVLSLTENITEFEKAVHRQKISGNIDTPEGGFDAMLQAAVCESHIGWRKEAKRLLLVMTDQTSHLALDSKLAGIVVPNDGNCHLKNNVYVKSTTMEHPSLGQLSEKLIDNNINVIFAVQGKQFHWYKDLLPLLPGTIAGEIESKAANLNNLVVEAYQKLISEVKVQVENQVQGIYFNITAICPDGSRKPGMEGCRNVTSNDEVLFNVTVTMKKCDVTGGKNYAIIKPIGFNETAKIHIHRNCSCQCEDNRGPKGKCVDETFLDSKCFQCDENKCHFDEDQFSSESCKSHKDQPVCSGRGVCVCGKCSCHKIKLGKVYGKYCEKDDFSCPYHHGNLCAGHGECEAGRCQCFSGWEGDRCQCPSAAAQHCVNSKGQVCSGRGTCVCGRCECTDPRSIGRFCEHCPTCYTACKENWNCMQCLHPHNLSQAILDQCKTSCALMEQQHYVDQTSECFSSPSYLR
Sequence of αvβ6 (P06756 31-992 limits assumed): as the sequence (P06756 31-992 limits assumed) above
Sequence of αvβ6 (P18564 22-707 limits assumed): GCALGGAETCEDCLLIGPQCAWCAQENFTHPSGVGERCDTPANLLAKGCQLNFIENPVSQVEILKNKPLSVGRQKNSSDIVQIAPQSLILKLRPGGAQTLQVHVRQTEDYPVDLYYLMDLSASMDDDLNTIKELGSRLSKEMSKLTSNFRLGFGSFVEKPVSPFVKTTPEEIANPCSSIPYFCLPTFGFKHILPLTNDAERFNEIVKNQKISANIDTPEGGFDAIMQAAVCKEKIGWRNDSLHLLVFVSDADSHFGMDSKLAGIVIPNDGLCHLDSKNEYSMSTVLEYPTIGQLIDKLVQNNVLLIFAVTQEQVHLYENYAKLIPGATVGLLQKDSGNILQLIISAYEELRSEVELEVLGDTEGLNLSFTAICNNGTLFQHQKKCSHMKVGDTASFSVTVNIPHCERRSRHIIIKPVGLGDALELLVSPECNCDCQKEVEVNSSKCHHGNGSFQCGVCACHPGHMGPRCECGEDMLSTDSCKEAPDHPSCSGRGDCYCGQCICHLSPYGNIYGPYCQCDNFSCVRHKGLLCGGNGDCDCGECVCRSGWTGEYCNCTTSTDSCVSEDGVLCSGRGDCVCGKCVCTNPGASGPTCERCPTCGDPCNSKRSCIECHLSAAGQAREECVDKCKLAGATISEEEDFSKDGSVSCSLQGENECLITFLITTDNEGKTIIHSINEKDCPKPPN

As to `COc1ccc([C@H](CC(=O)O)N2CCN(CCCc3ccc4c(n3)NCCC4)C2=O)cn1` [A1, (S)-3-(6-methoxypyridin-3-yl)-3-(2-oxo-3-(3-(5,6,7,8-tetrahydro-1,8-naphthyridin-2-yl)propyl)imidazolidin-1-yl)propanoic acid], the IC50 is 9.57 nM in experiment [1] and 17.6 nM in experiment [2] (ligand LAP-TGF β1 (LAP1) 20 nM, integrin 10 nM). Besides, the αvβ8/αvβ6 in experiment [2] (ratio of αvβ8 IC50 to αvβ6 IC50) came out at 1.83.

Source of the values: patent publication US9572801B2, “Tetrahydronaphthyridinyl propionic acid derivatives and uses thereof” (SciFluor Life Sciences, Inc., priority 2015, dated 2017).
